Laboratory results reported in patent publication US5397781A, “Pyrimidine derivatives” (Mochida Pharmaceutical Company, Limited, priority 1992, dated 1995).

Each compound was assayed against T1, ACAT (Rattus norvegicus, UniProt Q7TQM4) (assay: Inhibitory effect on microsomal ACAT activity in rat liver). Details: rat liver microsomes; read-out: IC50 (50% inhibition of cholesterol esterification).
T1 construct: Liver microsomes as an enzyme sample of ACAT were prepared from overnight-fasted male rats; from tissue; host or cells: liver of overnight-fasted male rats, 6 weeks old; microsomes
T1 sequence (Q7TQM4 1-524): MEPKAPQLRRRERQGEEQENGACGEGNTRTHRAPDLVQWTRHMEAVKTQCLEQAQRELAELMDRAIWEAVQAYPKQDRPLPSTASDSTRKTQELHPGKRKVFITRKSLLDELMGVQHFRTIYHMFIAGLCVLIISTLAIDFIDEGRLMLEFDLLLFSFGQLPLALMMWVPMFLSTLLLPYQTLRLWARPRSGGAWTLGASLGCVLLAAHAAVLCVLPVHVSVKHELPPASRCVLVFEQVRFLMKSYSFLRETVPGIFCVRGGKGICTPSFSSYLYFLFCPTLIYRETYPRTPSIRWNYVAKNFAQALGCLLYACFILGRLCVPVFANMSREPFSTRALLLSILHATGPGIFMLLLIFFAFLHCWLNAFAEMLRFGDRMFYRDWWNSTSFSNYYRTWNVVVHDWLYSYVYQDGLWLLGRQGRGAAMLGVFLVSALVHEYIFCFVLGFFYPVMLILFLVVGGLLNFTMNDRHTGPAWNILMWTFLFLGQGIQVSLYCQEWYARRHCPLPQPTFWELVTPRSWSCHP
Format: biochemical
`CCCN(CC(=O)Nc1c(S)nc(C)nc1N(CC)CC)c1ccccc1` [Example 133, N-[4-(N,N-diethylamino)-6-mercapto-2-methylpyrimidin-5-yl]-2-(N-phenyl-N-propylamino)acetamide] showed an IC50 of 260 nM.
`CCCN(CCCC(=O)Nc1c(S)nc(C)nc1N(CC)CC)c1ccccc1` [Example 145, N-[4-(N,N-diethylamino)-6-mercapto-2-methylpyrimidin-5-yl]-4-(N-phenyl-N-propylamino)butanamide] was tested, and the IC50 was 80 nM.
With `CCCCN(CCCC)c1nc(C)nc(S)c1NC(=O)CCCN(CCC)c1ccccc1` [Example 146, N-[4-(N,N-dibutylamino)-6-mercapto2-methylpyrimidin-5-yl]-4-(N-phenyl-N-propylamino)butanamide] the IC50 was 110 nM.
Work on `CCCCCCN(CCCC(=O)Nc1c(S)nc(C)nc1N(CCC)CCC)c1ccccc1` [Example 156, N-[4-(N,N-dipropylamino)-6-mercapto-2-methylpyrimidin-5-yl]-4-(N-hexyl-N-phenylamino)butanamide] yielded an IC50 of 38 nM.
In the case of `CCCCCCN(CCCC(=O)Nc1c(OC)nc(C)nc1N(CC)CC)c1ccccc1` [Example 166, N-[4-(N,N-diethylamino)-6-methoxy-2-methylpyrimidin-5-yl]-4-(N-hexyl-N-phenylamino)butanamide], the IC50 is reported as 81 nM.
In the case of `CCCCCCN(CCCC(=O)Nc1c(OC)nc(C)nc1N(CCC)CCC)c1ccccc1` [Example 167, N-[4-(N,N-dipropylamino)-6-methoxy-2-methylpyrimidin-5-yl]-4-(N-hexyl-N-phenylamino)butanamide], the IC50 is reported as 43 nM.
For `CCCCCCN(CCCC(=O)Nc1c(OC)nc(SC)nc1N(CC)CC)c1ccccc1` [Example 168, N-[4-(N,N-diethylamino)-6-methoxy-2-methylthiopyrimidin-5-yl]-4-(N-hexyl-N-phenylamino)butanamide], the IC50 was 87 nM.
`CCCN(CCCC(=O)Nc1c(S)nc(C)nc1N(CC)CC)c1ccc(OC)cc1` [Example 173, N-[4-(N,N-diethylamino)-6-mercapto-2-methylpyrimidin-5-yl]-4-[N-(4-methoxyphenyl)-N-propylamino]butanamide] showed an IC50 of 170 nM.
Work on `CCCN(CCCC(=O)Nc1c(S)nc(C)nc1N(CC)CC)c1ccc(F)cc1F` [Example 180, N-[4-(N,N-diethylamino)-6-mercapto-2-methylpyrimidin-5-yl]-4-[N-(2,4-difluorophenyl)-N-propylamino]butanamide] yielded an IC50 of 200 nM.
With `CCCCCCCN(CCCC(=O)Nc1c(S)nc(C)nc1N(CC)CC)Cc1ccccc1` [Example 182, 4-(N-benzyl-N-heptylamino)-N-[4-(N,N-diethylamino)-6-mercapto-2-methylpyrimidin-5-yl]butanamide] the IC50 was 220 nM.
Compound `CCN(CC)c1nc(C)nc(S)c1NC(=O)CCCN1CCCc2ccccc21` [Example 183, N-[4-(N,N-diethylamino)-6-mercapto-2-methylpyrimidin-5-yl]-4-(tetrahydroquinolino)butanamide] has an IC50 of 280 nM.
With `CCCN(CCCCC(=O)Nc1c(S)nc(C)nc1N(CCC)c1ccccc1)c1ccccc1` [Example 185, N-[4-mercapto-2-methyl-6-(N-phenyl-N-propylamino)pyrimidin-5-yl]-5-(N-phenyl-N-propylamino)pentanamide] the IC50 was 79 nM.
With `CCCN(CCCCC(=O)Nc1c(S)nc(C)nc1N(CC)CC)c1ccccc1` [Example 187, N-[4-(N,N-diethylamino)-6-mercapto-2-methylpyrimidin-5-yl]-5-(N-phenyl-N-propylamino)pentanamide] the IC50 was 47 nM.
For `CCCN(CCCCC(=O)Nc1c(S)nc(C)nc1N(CCC)CCC)c1ccccc1` [Example 188, N-[4-(N,N-dipropylamino)-6-mercapto-2-methylpyrimidin-5-yl]-5-(N-phenyl-N-propylamino)pentanamide], the IC50 was 35 nM.
`CCCCN(CCCC)c1nc(C)nc(OC)c1NC(=O)CCCCN(CCC)c1ccccc1` [Example 195, N-[4-(N,N-dibutylamino)-6-methoxy-2-methylpyrimidin-5-yl]-5-(N-phenyl-N-propylamino)pentanamide] was tested, and the IC50 was 47 nM.
In the case of `CCCCN(CCCC)c1ncnc(OCC)c1NC(=O)CCCCN(CCC)c1ccccc1` [Example 197, N-[4-(N,N-dibutylamino)-6-ethoxypyrimidin-5-yl]-5-(N-phenyl-N-propylamino)pentanamide], the IC50 is reported as 8.8 nM.
`CCCN(CCCCCC(=O)Nc1c(S)nc(C)nc1N(CCC)c1ccccc1)c1ccccc1` [Example 205, N-[4-mercapto-2-methyl-6-(N-phenyl-N-propylamino)pyrimidin-5-yl]-6-(N-phenyl-N-propylamino)hexanamide] was tested, and the IC50 was 280 nM.
`CCCN(CC(=O)Nc1c(SC)nc(C)nc1N(CC)CC)Cc1ccccc1` [Example 210, 2-(N-benzyl-N-propylamino) N-[4-(N,N-diethylamino)-2-methyl-6-methylthiopyrimidin-5-yl]acetamide] gave an IC50 of 470 nM.
`CCCN(CCCC(=O)Nc1c(SC)nc(C)nc1N(CCC)c1ccccc1)c1ccccc1` [Example 218, N-[2-methyl-4-methylthio-6-(N-phenyl-N-propylamino)pyrimidin-5-yl]-4-(N-phenyl-N-propylamino)butanamide] gave an IC50 of 430 nM.
`CCN(CC)c1nc(C)nc(SC)c1NC(=O)CCCN(C)c1ccccc1` [Example 224, N-[4-(N,N-diethylamino)-2-methyl-6-methylthiopyrimidin-5-yl]-4-(N-methyl-N-phenylamino)butanamide] was tested, and the IC50 was 220 nM.
With `CCCCCCN(CCCC(=O)Nc1c(SC)nc(C)nc1N(CCC)CCC)c1ccccc1` [Example 226, N-[4-(N,N-dipropylamino)-2-methyl-6-methylthiopyrimidin-5-yl]-4-(N-hexyl-N-phenylamino)butanamide] the IC50 was 16 nM.
Compound `CCCCCCN(CCCC(=O)Nc1c(SC)nc(C)nc1N(CCCC)CCCC)c1ccccc1` [Example 227, N-[4-(N,N-dibutylamino)-2-methyl-6-methylthiopyrimidin-5-yl]-4-(N-hexyl-N-phenylamino)butanamide] has an IC50 of 110 nM.
`CCCCCCN(CCCC(=O)Nc1c(SC)nc(SC)nc1N(CC)CC)c1ccccc1` [Example 234, N-[4-(N,N-diethylamino)-2,6-bis(methylthio)pyrimidin-5-yl]-4-(N-hexyl-N-phenylamino)butanamide] showed an IC50 of 25 nM.
With `CCN(CC)c1nc(C)nc(SC)c1NC(=O)CCCN(c1ccccc1)C1CCCCCC1` [Example 235, 4-(N-cycloheptyl-N-phenylamino)-N-[4-(N,N-diethylamino)-2-methyl-6-methylthiopyrimidin-5-yl]butanamide] the IC50 was 26 nM.
Work on `CCCCCCCCCCN(CCCC(=O)Nc1c(SC)nc(C)nc1N(CC)CC)c1ccccc1` [Example 236, 4-(N-decyl-N-phenylamino)-N-[4-(N,N-diethylamino)-2-methyl-6-methylthiopyrimidin-5-yl]butanamide] yielded an IC50 of 32 nM.
In the case of `CCCCc1ccc(N(CCC)CCCC(=O)Nc2c(SC)nc(C)nc2N(CC)CC)cc1` [Example 237, 4-[N-(4-butylphenyl)-N-propylamino]-N-[4-(N,N-diethylamino)-2-methyl-6-methylthiopyrimidin-5-yl]butanamide], the IC50 is reported as 83 nM.
Work on `CCCCCCN(CCCC(=O)Nc1c(SC)nc(C)nc1N(CC)CC)c1ccc(OC)cc1` [Example 239, N-[4-(N,N-diethylamino)-2-methyl-6-methylthiopyrimidin-5-yl]-4-[N-hexyl-N-(4-methoxyphenyl)amino]butanamide] yielded an IC50 of 120 nM.
`CCCN(CCCC(=O)Nc1c(SC)nc(C)nc1N(CC)CC)c1ccc(F)cc1F` [Example 241, N-[4-(N,N-diethylamino)-2-methyl-6-methylthiopyrimidin-5-yl]-4-[N-(2,4-difluorophenyl)-N-propylamino]butanamide] was tested, and the IC50 was 76 nM.
`CCCN(CCCC(=O)Nc1c(SC)nc(C)nc1N(CC)CC)Cc1ccccc1` [Example 242, 4-(N-benzyl-N-propylamino)-N-[4-(N,N-diethylamino)-2-methyl-6-methylthiopyrimidin-5-yl]butanamide] gave an IC50 of 220 nM.
`CCCCCCCN(CCCC(=O)Nc1c(SC)nc(C)nc1N(CC)CC)Cc1ccccc1` [Example 243, 4-(N-benzyl-N-heptylamino)-N-[4-(N,N-diethylamino)-2-methyl-6-methylthiopyrimidin-5-yl]butanamide] was tested, and the IC50 was 95 nM.
`CCN(CC)c1nc(C)nc(SC)c1NC(=O)CCCN1CCCc2ccccc21` [Example 244, N-[4-(N,N-diethylamino)-2-methyl-6-methylthiopyrimidin-5-yl]-4-(N-tetrahydroquinolino)butanamide] was tested, and the IC50 was 190 nM.
With `CCCN(CCCCC(=O)Nc1c(SC)nc(C)nc1N(CC)CC)c1ccccc1` [Example 245, N-[4-(N,N-diethylamino)-2-methyl-6-methylthiopyrimidin-5-yl]-5-(N-phenyl-N-propylamino)pentanamide] the IC50 was 64 nM.
`CCCN(CCCCC(=O)Nc1c(SC)nc(C)nc1N(CCC)CCC)c1ccccc1` [Example 246, N-[4-(N,N-dipropylamino)-2-methyl-6-methylthiopyrimidin-5-yl]-5-(N-phenyl-N-propylamino)pentanamide] was tested, and the IC50 was 14 nM.
For `CCCN(CCCCC(=O)Nc1c(SC)nc(C)nc1N(CC)Cc1ccccc1)c1ccccc1` [Example 248, N-[4-(N-benzyl-N-ethylamino)-2-methyl-6-methylthiopyrimidin-5-yl]-5-(N-phenyl-N-propylamino)pentanamide], the IC50 was 32 nM.
